According to ChEMBL document CHEMBL1240412, “Synthesis and structure activity relationship studies of novel Staphylococcus aureus Sortase A inhibitors” (Eur J Med Chem, 2010):
pIC50: −log10 of the molar value.

Assay: Inhibition of Staphylococcus aureus Sortase Adelta59 by FRET assay

SMILES | pIC50
COC(=O)c1cc(NC(=O)C#Cc2cccs2)ccc1N1CCOCC1 | 3.78
O=C(C#Cc1cccs1)Nc1ccc(N2CCOCC2)c(C(=O)O)c1 | 3.74
COC(=O)c1cc(NC(=O)/C=C\c2cccs2)ccc1N1CCOCC1 | 4.21
O=C(/C=C\c1cccs1)Nc1ccc(N2CCOCC2)c(C(=O)O)c1 | 3.81
COC(=O)c1cc(N(C)C(=O)/C=C/c2cccs2)ccc1N1CCOCC1 | 3.24
COC(=O)c1cc(N(C)C(=O)/C=C/c2ccco2)ccc1N1CCOCC1 | 3.29
CN(C(=O)/C=C/c1cccs1)c1ccc(N2CCOCC2)c(C(=O)O)c1 | < 3.22
CN(C(=O)/C=C/c1ccco1)c1ccc(N2CCOCC2)c(C(=O)O)c1 | < 3.22
COC(=O)c1cc(NC/C=C/c2cccs2)ccc1N1CCOCC1 | 3.60
O=C(O)c1cc(NC/C=C/c2cccs2)ccc1N1CCOCC1 | < 3.22
COC(=O)c1cc(NC(=O)/C=C/c2cccs2)ccc1N1CCCCC1 | 4.04
COC(=O)c1cc(NC(=O)/C=C/c2ccco2)ccc1N1CCCCC1 | 3.88
O=C(/C=C/c1cccs1)Nc1ccc(N2CCCCC2)c(C(=O)O)c1 | 3.74
O=C(/C=C/c1ccco1)Nc1ccc(N2CCCCC2)c(C(=O)O)c1 | 3.33
O=C(/C=C/c1cccs1)Nc1ccc(N2CCOCC2)c(C(=O)O)c1 | 4.12
COC(=O)c1cc(NC(=O)/C=C/c2cccs2)ccc1N1CCOCC1 | 4.15
O=C(/C=C/c1ccco1)Nc1ccc(N2CCOCC2)c(CO)c1 | 3.95
COC(=O)c1cc(NC(=O)CCc2cccs2)ccc1N1CCOCC1 | < 3.22
O=Cc1cc(NC(=O)/C=C/c2ccco2)ccc1N1CCOCC1 | 3.97
NC(=O)c1cc(NC(=O)/C=C/c2cccs2)ccc1N1CCOCC1 | 3.98
O=Cc1cc(NC(=O)/C=C/c2cccs2)ccc1N1CCOCC1 | 4.11
O=C(/C=C/c1ccco1)Nc1ccc(N2CCOCC2)c(C(=O)O)c1 | 3.74
O=C(CCc1ccco1)Nc1ccc(N2CCOCC2)c(C(=O)O)c1 | < 3.22
COC(=O)c1cc(NC(=O)/C=C/c2ccco2)ccc1N1CCOCC1 | 4.24
O=C(CCc1cccs1)Nc1ccc(N2CCOCC2)c(C(=O)O)c1 | < 3.22
O=C(/C=C/c1cccs1)Nc1ccc(N2CCOCC2)c(CO)c1 | 4.14
COC(=O)c1cc(NC(=O)CCc2ccco2)ccc1N1CCOCC1 | < 3.22
